Assay results published in ChEMBL document CHEMBL4229359, “Simple 2(5H)-furanone derivatives with selective cytotoxicity towards non-small cell lung cancer cell line A549 - Synthesis, structure-activity relationship and biological evaluation” (Eur J Med Chem, 2018).
Activity calls are given as the source filed them. The rule behind the calls is not given here.

Key:
A549 [1] = assay: Cytotoxicity against human A549 cells assessed as reduction in cell viability after 72 hrs by MTT assay; assay type: functional, cell-based; conditions: A549, 72 h
A549 [2] = assay: Induction of apoptosis in human A549 cells at 20 uM after 72 hrs by Annexin V-FITC/propidium iodide staining based flow cytometry relative to control; assay type: functional
A549 [3] = assay: Cell cycle arrest in human A549 cells assessed as accumulation at G1-phase at 20 uM after 72 hrs by propidium iodide staining based flow cytometry (reference value: 61.5%); assay type: functional
A549 [4] = assay: Cell cycle arrest in human A549 cells assessed as accumulation at S-phase at 20 uM after 72 hrs by propidium iodide staining based flow cytometry (reference value: 31.9%); assay type: functional
HCT-116 [5] = assay: Cytotoxicity against p53-/- human HCT116 cells assessed as reduction in cell viability after 72 hrs by MTT assay; assay type: functional, cell-based; conditions: HCT-116, 72 h
U2OS = assay: Cytotoxicity against human U2OS cells assessed as reduction in cell viability after 72 hrs by MTT assay; assay type: functional, cell-based
A549 [6] = assay: Induction of apoptosis in human A549 cells assessed as late apoptotic cells at 20 uM after 72 hrs by Annexin V-FITC/propidium iodide staining based flow cytometry (reference value: 0.5%); assay type: functional
A549 [7] = assay: Synergistic anticlonogenic activity against human A549 cells at 10 uM after 72 hrs in presence of 10 uM erlotinib by crystal violet staining based microscopic method; assay type: functional
A549 [8] = assay: Synergistic cytotoxicity against human A549 cells assessed as reduction in cell viability at 10 uM after 72 hrs in presence of 5 to 20 uM erlotinib by MTT assay; assay type: functional, cell-based
HCT-116 [9] = assay: Cytotoxicity against human HCT116 cells assessed as reduction in cell viability after 72 hrs by MTT assay; assay type: functional, cell-based; conditions: HCT-116, 72 h
A549 [10] = assay: Cell cycle arrest in human A549 cells assessed as accumulation at G1-phase at 10 uM after 24 hrs by propidium iodide staining based flow cytometry (reference value: 59.4%); assay type: functional
A549 [11] = assay: Induction of apoptosis in human A549 cells assessed as caspase-3 cleavage at 20 uM after 72 hrs by Western blot analysis; assay type: functional, cell-based
BEAS-2B = assay: Cytotoxicity against human BEAS2B cells assessed as reduction in cell viability after 72 hrs by MTT assay; assay type: cell-based
PC-3 = assay: Cytotoxicity against human PC3 cells assessed as reduction in cell viability after 72 hrs by MTT assay; assay type: functional, cell-based; conditions: PC-3, 72 h
A549 [12] = assay: Anticlonogenic activity against human A549 cells assessed as colony formation at 10 uM after 72 hrs by crystal violet staining based microscopic method relative to control; assay type: functional
A549 [13] = assay: Synergistic cell cycle arrest in human A549 cells assessed as accumulation at G1-phase at 10 uM after 72 hrs in presence of 10 uM erlotinib by propidium iodide staining based flow cytometry (reference value: 76%); assay type: functional
[14] = Selectivity index, ratio of IC50 for human BEAS2B cells to IC50 for human A549 cells; assay type: toxicity
DU-145 = assay: Cytotoxicity against human DU145 cells assessed as reduction in cell viability after 72 hrs by MTT assay; assay type: functional, cell-based; conditions: DU-145, 72 h
A549 [15] = assay: Effect on Bad protein expression in human A549 cells at 20 uM after 72 hrs by densitometric analysis; assay type: functional, cell-based
A549 [16] = assay: Cell cycle arrest in human A549 cells assessed as accumulation at G2/M-phase at 20 uM after 72 hrs by propidium iodide staining based flow cytometry (reference value: 6.7%); assay type: functional
A549 [17] = assay: Effect on cleaved caspase-3 protein expression in human A549 cells at 20 uM after 72 hrs by densitometric analysis; assay type: functional, cell-based
A549 [18] = assay: Effect on Pro-caspase-3 protein expression in human A549 cells at 20 uM after 72 hrs by densitometric analysis; assay type: functional, cell-based
LoVo = assay: Cytotoxicity against human LoVo cells assessed as reduction in cell viability after 72 hrs by MTT assay; assay type: functional, cell-based
A549 [19] = assay: Cell cycle arrest in human A549 cells assessed as accumulation at S-phase at 10 uM after 24 hrs by propidium iodide staining based flow cytometry (reference value: 34.1%); assay type: functional
A549 [20] = assay: Cell cycle arrest in human A549 cells assessed as accumulation at G2/M-phase at 10 uM after 72 hrs by propidium iodide staining based flow cytometry (reference value: 6.3 to 7.2%); assay type: functional
A549 [21] = assay: Cell cycle arrest in human A549 cells assessed as accumulation at G2/M-phase at 10 uM after 24 hrs by propidium iodide staining based flow cytometry (reference value: 6.5%); assay type: functional
A549 [22] = assay: Effect on Bcl-x protein expression in human A549 cells at 20 uM after 72 hrs by densitometric analysis; assay type: functional, cell-based
SJSA-1 = assay: Cytotoxicity against human SJSA1 cells assessed as reduction in cell viability after 72 hrs by MTT assay; assay type: functional, cell-based; conditions: SJSA-1, 72 h
A549 [23] = assay: Effect on Bcl2 protein expression in human A549 cells at 20 uM after 72 hrs by densitometric analysis; assay type: functional, cell-based
A549 [24] = assay: Anticlonogenic activity against human A549 cells assessed as colony formation at 5 uM after 72 hrs by crystal violet staining based microscopic method relative to control; assay type: functional
A549 [25] = assay: Downregulation of Cyclin-B1 protein expression in human A549 cells at 10 uM after 72 hrs by Western blot analysis; assay type: functional, cell-based
MCF7 = assay: Cytotoxicity against human MCF7 cells assessed as reduction in cell viability after 72 hrs by MTT assay; assay type: functional, cell-based; conditions: MCF7, 72 h
A549 [26] = assay: Cell cycle arrest in human A549 cells assessed as accumulation at G1-phase at 10 uM after 72 hrs by propidium iodide staining based flow cytometry (reference value: 75.2 to 76%); assay type: functional
A549 [27] = assay: Anticlonogenic activity against human A549 cells at 10 uM after 72 hrs by crystal violet staining based microscopic method relative to control; assay type: functional
A549 [28] = assay: Effect on Bax protein expression in human A549 cells at 20 uM after 72 hrs by densitometric analysis; assay type: functional, cell-based
A549 [29] = assay: Synergistic cell cycle arrest in human A549 cells assessed as accumulation at S-phase at 10 uM after 72 hrs in presence of 10 uM erlotinib by propidium iodide staining based flow cytometry (reference value: 16.8%); assay type: functional
HepG2 = assay: Cytotoxicity against human HepG2 cells assessed as reduction in cell viability after 72 hrs by MTT assay; assay type: functional, cell-based; conditions: HepG2, 72 h
Hep 3B2 = assay: Cytotoxicity against human Hep3B cells assessed as reduction in cell viability after 72 hrs by MTT assay; assay type: functional, cell-based
A549 [30] = assay: Synergistic cell cycle arrest in human A549 cells assessed as accumulation at G2/M-phase at 10 uM after 72 hrs in presence of 10 uM erlotinib by propidium iodide staining based flow cytometry (reference value: 7.2%); assay type: functional
A549 [31] = assay: Induction of apoptosis in human A549 cells assessed as early apoptotic cells at 20 uM after 72 hrs by Annexin V-FITC/propidium iodide staining based flow cytometry (reference value: 0.4%); assay type: functional
A549 [32] = assay: Induction of apoptosis in human A549 cells assessed as necrotic cells at 20 uM after 72 hrs by Annexin V-FITC/propidium iodide staining based flow cytometry (reference value: 0.6%); assay type: functional
HT-29 = assay: Cytotoxicity against human HT-29 cells assessed as reduction in cell viability after 72 hrs by MTT assay; assay type: functional, cell-based; conditions: HT-29, 72 h
A549 [33] = assay: Induction of mitosis in human A549 cells at 10 uM after 24 hrs by DAPI staining based fluorescence microscopic method; assay type: functional, cell-based
A549 [34] = assay: Cell cycle arrest in human A549 cells assessed as accumulation at S-phase at 10 uM after 72 hrs by propidium iodide staining based flow cytometry (reference value: 16.8 to 18.5%); assay type: functional
A549 [35] = assay: Induction of apoptosis in human A549 cells assessed as live cells at 20 uM after 72 hrs by Annexin V-FITC/propidium iodide staining based flow cytometry (reference value: 98.5%); assay type: functional

CC(C)OC1OC(=O)C(Cl)=C1Cl (stereo not given)
IC50 (A549 [1]): 6.7 µM | fold change (FC) (A549 [2]): 36 | Activity (A549 [3]): 48% | Activity (A549 [4]): 47.3% | IC50 (HCT-116 [5]): 6.8 µM | IC50 (U2OS): 21.1 µM | Activity (A549 [6]): 25.7% | Activity (A549 [7]): 89% | Activity (A549 [8]): inactive | IC50 (HCT-116 [9]): 7.2 µM | Activity (A549 [10]): 40% | Activity (A549 [11]): inactive | IC50 (BEAS-2B): 27.5 µM | IC50 (PC-3): 4.8 µM | Activity (A549 [12]): 15% | Activity (A549 [13]): 51.4% | log(RatioIC50) [14]: 0.61 | IC50 (DU-145): 25.4 µM | Activity (A549 [15]): inactive | Activity (A549 [16]): 4.7% | Activity (A549 [17]): inactive | Activity (A549 [18]): inactive | IC50 (LoVo): 2.8 µM | Activity (A549 [19]): 36.6% | Activity (A549 [20]): 12.5 - 13.9% | Activity (A549 [21]): 23.4% | Activity (A549 [22]): inactive | IC50 (SJSA-1): 7.7 µM | Activity (A549 [23]): inactive | Activity (A549 [24]): 40% | Activity (A549 [25]): Active | IC50 (MCF7): 12.4 µM | Activity (A549 [26]): 59.9 - 68.2% | Activity (A549 [27]): 86% | Activity (A549 [28]): inactive | Activity (A549 [29]): 31.9% | IC50 (HepG2): 16.8 µM | IC50 (Hep 3B2): 19.8 µM | Activity (A549 [30]): 16.6% | Activity (A549 [31]): 6.5% | Activity (A549 [32]): 3.9% | IC50 (HT-29): 7.2 µM | Activity (A549 [33]): inactive | Activity (A549 [34]): 19.3 - 26.2% | Activity (A549 [35]): 63.9%
